US20170247645A1, “ENCAPSULATED FRAGRANCE MIXTURES” (Symrise AG, priority 2014, published 2017)

Tests used:
[1] = log Kow (octanol/water partition coefficient); format: physicochemical; settings: 1-octanol/water
Description: In a further preferred embodiment, the individual fragrances of the fragrance mixture of the invention have a log Kow value of 1 to 10, preferably of 1.5 to 8, more preferably of 2 to 5.5.
The log Kow (octanol/water partition coefficient) is a measure of the lipophilicity of a substance. In terms of calculation, it is the partition coefficient Kow of a substance in a mixture of 1-octanol and water. Kow is greater than one when a substance has better solubility in fat-like solvents such as n-octanol, and less than one when it has better solubility in water. Correspondingly, log Kow is positive for lipophilic substances and negative for hydrophilic substances.

[2] = Odor threshold value (OTV) in air
Description: The odor threshold is the threshold at which a fragrance or odorant is olfactorily perceived by an organism. The odor threshold value, OTV for short, is that minimum concentration of a particular gaseous, sensorily active substance in the surrounding medium that this lifeform is just able to perceive through its sense of smell. In the present invention, preference is given to fragrances having a (very) low odor threshold value. The lower this is, the lower the concentration at which the fragrance is then perceived.

SMILES | log Kow [1] | OTV [2] [ppm]
CCOC(=O)[C@H]1O[C@@]1(C)c1ccccc1 [Example 2, Aldehyde C16] | 3 | 0.2
C=CCOC(=O)COCCC(C)C [Example 7, Allyl amyl glycolate] | – | 0.1
CCCCC/C=C\CCC=O [Example 10, cis-4-Decenal] | 3.55 | 0.2

Now from value to molecule, other results behind:

log Kow [1] | SMILES | OTV [2] [ppm]
3.58 | CC(C)=C[C@H]1C[C@@H](C)CCO1 [Example 1, Rose oxide] | 0.5
3.55 | CC(C)=CCC[C@@H](C)CC#N [Example 3, citronellylnitrile] | 1
5.19 | CC(C)=CCCC1=CC[C@](C)(C=O)CC1 [Example 6, Pre-cyclemone B] | 0.5
2.86 | COc1nccnc1CC(C)C [Example 9, 2-Isobutyl-3-methoxypyrazine] | 0.1
